This assay concerns HCV 1b_Huh-Luc/Neo-ET cell line persistently expressing a bicistronic genotype 1b replicon in Huh 7 cells. Kind of assay: HCV replicon assay (luciferase readout). The format is cell-based. As to conditions: Hepatitis C virus, Huh-7, 72 h, read-out: Inhibition of HCV genotype 1b. Put shortly:
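Huh 7 cells carrying a genotype 1b luciferase/neo replicon treated in triplicate for 72 h, then luciferase activity measured. Signal expressed as % of control; EC50 from four-parameter logistic fit, determined several times.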
(In general: Replicon systems follow genome replication, usually without infectious particles.)

From patent US8865756B2, “Inhibitors of HCV NS5A” (Presidio Pharmaceuticals, Inc., priority 2008, dated 2014) come the findings set out here.

Take `COC(=O)N[C@@H](C(=O)N1CCC[C@H]1c1ncc(C#Cc2ccc(-c3ccc(-c4cnc([C@@H]5CCCN5C(=O)[C@@H](c5ccccc5)N(C)C)[nH]4)cc3)cc2)[nH]1)c1ccccc1` [Compound 755]: the EC50 is under 1 nM.

With `COC(=O)N[C@H](C(=O)N1CCC[C@H]1c1ncc(-c2ccc(C#Cc3ccc(-c4cnc([C@@H]5CCCN5C(=O)[C@@H](c5ccccc5)N5CCCCC5)[nH]4)cc3)cc2)[nH]1)C(C)C` [Compound 986], the EC50 is under 1 nM.

For the molecule `CC1(O)CCC(C(=O)N[C@@H](C(=O)N2CCC[C@H]2c2nc(-c3ccc4cc(C#Cc5cnc([C@@H]6CCCN6C(=O)[C@H](NC(=O)N6CCC(C)(O)CC6)c6ccccc6)[nH]5)ccc4c3)c[nH]2)c2ccccc2)CC1` (stereo partly drawn) [Compound 805], the EC50 is under 1 nM.

Regarding `C[C@H]1OC(=O)N(C)[C@@H]1C(=O)N1CCC[C@H]1c1ncc(-c2ccc(C#Cc3ccc(-c4cnc([C@@H]5CCCN5C(=O)[C@@H]5[C@@H](C)OC(=O)N5C)[nH]4)cc3)cc2)[nH]1` [Compound 980], the EC50 lay in the range of 10 to 999 nM.

As to `COC(=O)N[C@@H](CC(N)=O)C(=O)N1CCC[C@H]1c1ncc(-c2ccc(C#Cc3ccc4nc([C@@H]5CCCN5C(=O)[C@H](CC(N)=O)NC(=O)OC)[nH]c4c3)cc2)[nH]1` [Compound 1046], the EC50 is 1 to 9.9 nM.

On to `COC(=O)N[C@@H]1CCC[C@H]1C(=O)N1CCC[C@H]1c1ncc(-c2ccc(C#Cc3ccc4nc([C@@H]5CCCN5C(=O)[C@@H]5CCC[C@H]5NC(=O)OC)[nH]c4c3)cc2)[nH]1` [Compound 1058], for which the EC50 lay within 10 to 999 nM.

For the molecule `COC(=O)N[C@@H](C(=O)N1CCC[C@H]1c1ncc(-c2ccc(C#Cc3ccc(-c4cnc([C@@H]5CCCN5C(=O)[C@H](NC(=O)N5CCCCC5)c5ccccc5)[nH]4)cc3)cc2)[nH]1)c1ccccc1` [Compound 242], the EC50 is under 1 nM.

With `COC(=O)N[C@H](C(=O)N1CCC[C@H]1c1ncc(-c2ccc(C#Cc3ccc(-c4cnc([C@@H]5CCCN5C(=O)[C@@H](c5ccccc5)N5CCC(C)(O)CC5)[nH]4)cc3)cc2)[nH]1)C(C)C` [Compound 970], the EC50 was under 1 nM.

Regarding `COC(=O)N[C@@H](C)C(=O)N1CCC[C@H]1c1ncc(-c2ccc(C#Cc3ccc(-c4cnc([C@@H]5CCCN5C(=O)[C@@H](c5ccccc5)N5CCOC5=O)[nH]4)cc3)cc2)[nH]1` [Compound 1008], the EC50 was under 1 nM.

Regarding `O=C(N[C@@H](C(=O)N1CCC[C@H]1c1ncc(-c2ccc(C#Cc3ccc(-c4cnc([C@@H]5CCCN5C(=O)[C@H](NC(=O)OC5CCOCC5)c5ccccc5)[nH]4)c(F)c3)cc2)[nH]1)c1ccccc1)OC1CCOCC1` [Compound 1014], the EC50 was under 1 nM.

On to `CC(=O)N[C@@H](C(=O)N1CCC[C@H]1c1ncc(C#Cc2ccc(-c3cnc([C@@H]4CCCN4C(=O)[C@H](NC(C)=O)c4ccccc4)[nH]3)cc2)[nH]1)c1ccccc1` [Compound 109], for which the EC50 was under 1 nM.

Consider `COC(=O)NC1(C(=O)N2CCC[C@H]2c2ncc(-c3ccc(C#Cc4ccc5nc([C@@H]6CCCN6C(=O)C6(NC(=O)OC)CCCC6)[nH]c5c4)cc3)[nH]2)CCCC1` [Compound 1044], for which the EC50 was in the range of 10 to 999 nM.

Take `COC(=O)N[C@H](C(=O)N1CCC[C@H]1c1ncc(-c2ccc(C#Cc3ccc4nc([C@@H]5CCCN5C(=O)[C@@H](NC(=O)OC)[C@@H](C)OC)[nH]c4c3)cc2)[nH]1)[C@@H](C)OC` [Compound 862]: the EC50 is under 1 nM.

Regarding `COC(=O)N[C@@H](C(=O)N1CCC[C@H]1c1ncc(-c2ccc(C#Cc3ccc(-c4cnc([C@@H]5CCCN5C(=O)[C@H](C)c5ccccc5)[nH]4)cc3)cc2)[nH]1)c1ccccc1` [Compound 256], the EC50 is under 1 nM.

As to `C[C@@H](c1ncc(-c2ccc(C#Cc3ccc(-c4cnc([C@@H]5CCCN5C(=O)[C@H](NC(=O)C5CC5)c5ccccc5)[nH]4)cc3)cc2)[nH]1)N(C)C(=O)[C@H](NC(=O)C1CC1)c1ccccc1` [Compound 278], the EC50 is under 1 nM.

`CC(C)(C)OC(=O)N[C@@H](C(=O)N1CCC[C@H]1C(=O)Nc1ccc(C#Cc2cnc([C@@H]3CCCN3C(=O)[C@H](NC(=O)OC(C)(C)C)c3ccccc3)[nH]2)cc1)c1ccccc1` [Compound 115]: the EC50 is under 1 nM.

`O=C(N[C@@H](C(=O)N1CCC[C@H]1c1ncc(C#Cc2ccc(C#Cc3cnc([C@@H]4CCCN4C(=O)[C@H](NC(=O)N4CCOCC4)c4ccccc4)[nH]3)cc2)[nH]1)c1ccccc1)N1CCOCC1` [Compound 309]: the EC50 is under 1 nM.

For the molecule `O=C([C@@H](c1ccccc1)N1CCCCC1)N1CCC[C@H]1c1ncc(-c2ccc(C#Cc3ccc(-c4cnc([C@@H]5CCCN5C(=O)[C@@H](c5ccccc5)N5CCCCC5)[nH]4)cc3)cc2)[nH]1` [Compound 205], the EC50 is under 1 nM.

Consider `COC(=O)N[C@@H](C(=O)N1CCC[C@H]1c1ncc(-c2ccc(C#Cc3ccc(-c4cnc([C@@H]5CCCN5C(=O)[C@H](NC(=O)N5CCN(C)CC5)c5ccccc5)[nH]4)cc3)cc2)[nH]1)c1ccccc1` [Compound 240], for which the EC50 is under 1 nM.

With `COC(=O)N[C@@H](C(=O)N(C)[C@@H](C)c1ncc(-c2ccc(C#Cc3ccc(-c4cnc([C@@H]5CCCN5C(=O)[C@H](NC(=O)OC)c5ccccc5)[nH]4)cc3)cc2)[nH]1)c1ccccc1` [Compound 274], the EC50 is under 1 nM.

For the molecule `CC(C)[C@@H](NC(=O)C1CC1)C(=O)N1CCC[C@H]1c1ncc(C#Cc2ccc(-c3cnc([C@@H]4CCCN4C(=O)[C@H](NC(=O)C4CC4)C(C)C)[nH]3)cc2)[nH]1` [Compound 107], the EC50 was in the range of 1 to 9.9 nM.

`CCOC(=O)N[C@@H](C(=O)N1CCC[C@H]1c1ncc(-c2ccc(C#Cc3ccc(-c4cnc([C@@H]5CCCN5C(=O)[C@H](NC(=O)OCC)c5ccccc5)[nH]4)cc3)cc2)[nH]1)c1ccccc1` [Compound 244]: the EC50 is under 1 nM.

With `CN(C)C(=O)N[C@@H](C(=O)N1CCC[C@H]1c1ncc(-c2ccc(C#Cc3ccc(-c4cnc([C@@H]5CCCN5C(=O)[C@H](NC(=O)N(C)C)c5ccccc5)[nH]4)cc3)cc2)[nH]1)c1ccccc1` [Compound 161], the EC50 is under 1 nM.

For the molecule `COC(=O)N[C@H](C(=O)N1CCC[C@H]1c1nc(-c2cnc3cc(C#Cc4cnc([C@@H]5CCCN5C(=O)[C@@H](NC(=O)OC)C(C)C)[nH]4)ccc3c2)c[nH]1)C(C)C` [Compound 1076], the EC50 is under 1 nM.

As to `COC(=O)N[C@@H](C(=O)N1CCC[C@H]1c1ncc(-c2ccc(C#Cc3ccc(-c4cnc([C@@H]5CCCN5C(=O)[C@H](NC(=O)N5CCOCC5)c5ccccc5)[nH]4)cc3)cc2)[nH]1)c1ccccc1` [Compound 224], the EC50 was under 1 nM.

As to `COC[C@@H]1CCCN1C(=O)N[C@@H](C(=O)N1CCC[C@H]1c1ncc(-c2ccc(C#Cc3ccc(-c4cnc([C@@H]5CCCN5C(=O)[C@H](NC(=O)OC)c5ccccc5)[nH]4)cc3)cc2)[nH]1)c1ccccc1` [Compound 260], the EC50 was under 1 nM.

For `C[C@@H](NC(=O)[C@@H]1CCCN1C(=O)[C@H](NC(=O)OC(C)(C)C)c1ccccc1)c1ccc(C#Cc2ccc(-c3cnc([C@@H]4CCCN4C(=O)[C@H](NC(=O)OC(C)(C)C)c4ccccc4)[nH]3)cc2)cc1` [Compound 167], the EC50 fell in the range of 1 to 9.9 nM.

On to `CC(C)(C)OC(=O)N1CCCC1c1ncc(-c2ccc(C#Cc3ccc4nc([C@@H]5CCCN5C(=O)OC(C)(C)C)[nH]c4c3)cc2)[nH]1` (stereo partly drawn) [Compound 1034], for which the EC50 is 1 to 9.9 nM.

Turning to `COC(=O)N[C@@H](C(=O)N1CCC[C@H]1c1ncc(-c2ccc(C#Cc3ccc(-c4cnc([C@@H]5CCCN5C(=O)OCc5ccccc5)[nH]4)cc3)cc2)[nH]1)c1ccccc1` [Compound 200], the EC50 is under 1 nM.

Consider `CNC(=O)N[C@@H](C(=O)N1CCC[C@H]1c1ncc(-c2ccc(C#Cc3ccc(-c4cnc([C@@H]5CCCN5C(=O)[C@H](NC(=O)NC)c5ccccc5)[nH]4)cc3)cc2)[nH]1)c1ccccc1` [Compound 162], for which the EC50 is under 1 nM.

On to `COC(=O)N[C@H](C(=O)N1C[C@H](F)C[C@H]1c1ncc(-c2ccc(C#Cc3ccc4nc([C@@H]5CCCN5C(=O)[C@@H](NC(=O)OC)C(C)C)[nH]c4c3)cc2)[nH]1)C(C)C` [Compound 1040], for which the EC50 was under 1 nM.

As to `CC(C)(C)OC(=O)N[C@@H](C(=O)N1CCC[C@H]1c1cc(-c2ccc(C#Cc3ccc(-c4cnc([C@@H]5CCCN5C(=O)[C@H](NC(=O)OC(C)(C)C)c5ccccc5)[nH]4)cc3)cc2)n[nH]1)c1ccccc1` [Compound 210], the EC50 was under 1 nM.

On to `CN1CCC[C@@H]1C(=O)N[C@@H](C(=O)N1CCC[C@H]1c1ncc(-c2ccc(C#Cc3ccc(-c4cnc([C@@H]5CCCN5C(=O)[C@H](NC(=O)C5CC5)c5ccccc5)[nH]4)cc3)cc2)[nH]1)c1ccccc1` [Compound 216], for which the EC50 was under 1 nM.

Consider `COC(=O)N[C@@H](C(=O)N1CCC[C@H]1c1ncc(-c2ccc(C#Cc3ccc4nc([C@@H]5CCCN5C(=O)[C@H](NC(=O)OC)C(C)C)[nH]c4c3)cc2)[nH]1)C(C)C` [Compound 861], for which the EC50 is 10 to 999 nM.

With `COC(=O)N[C@@H](C(=O)N1CCC[C@H]1c1ncc(-c2ccc(C#Cc3ccc(-c4cnc([C@@H]5CCCN5C(=O)[C@@H]5CCCO5)[nH]4)cc3)cc2)[nH]1)c1ccccc1` [Compound 186], the EC50 is under 1 nM.

Regarding `CN1CCN(C(=O)N[C@@H](C(=O)N2CCC[C@H]2c2ncc(-c3ccc(C#Cc4ccc(-c5cnc([C@@H]6CCCN6C(=O)[C@H](NC(=O)C6CC6)c6ccccc6)[nH]5)cc4)cc3)[nH]2)c2ccccc2)CC1` [Compound 238], the EC50 was under 1 nM.

On to `CN(C)[C@@H](C(=O)N1CCC[C@H]1c1ncc(-c2ccc(C#Cc3ccc(-c4cnc([C@@H]5CCCN5C(=O)[C@H](NC(=O)C5CC5)c5ccccc5)[nH]4)cc3)cc2)[nH]1)c1ccccc1` [Compound 215], for which the EC50 is under 1 nM.

Consider `COC(=O)N[C@@H](C(=O)N1CCC[C@H]1c1ncc(-c2ccc(C#Cc3ccc(-c4nnc([C@@H]5CCCN5C(=O)[C@H](NC(=O)OC)c5ccccc5)[nH]4)cc3)cc2)[nH]1)c1ccccc1` [Compound 247], for which the EC50 was under 1 nM.

In the case of `O=C(N[C@@H](C(=O)N1CCC[C@H]1c1nc(-c2ccc3cc(C#Cc4cnc([C@@H]5CCCN5C(=O)[C@H](NC(=O)C5CC5)c5ccccc5)[nH]4)ccc3c2)c[nH]1)c1ccccc1)C1CC1` [Compound 804], the EC50 is under 1 nM.
